Source: US7985753B2, “Substituted pyrazolo[1,5-A]pyrimidines as metabotropic glutamate receptor modulators” (MERZ PHARMA GmbH & Co. KGaA, priority 2006, dated 2011)

molecular target: T1, transmembrane allosteric modulatory sites of mGluR5 receptors in cortical membranes (Rattus norvegicus, UniProt P31424); assay: [^3H]-MPEP binding assay in rat cortical membranes; conditions: read-out: mGluR5_M_MPEP_r_CTX_IC50
T1 construct: from tissue; host or cells: rat brain cortex membranes
Procedure: Male Sprague-Dawley rats (200-250 g) are decapitated and their brains are removed rapidly. The cortex is dissected and homogenized in 20 volumes of ice-cold 0.32 M sucrose using a glass-Teflon homogenizer. The homogenate is centrifuged at 1000×g for 10 minutes. The pellet is discarded and the supernatant centrifuged at 20,000×g for 20 minutes. The resulting pellet is re-suspended in 20 volumes of distilled water and centrifuged for 20 minutes at 8000×g. Then the supernatant and the buffy coat are centrifuged at 48,000×g for 20 minutes in the presence of 50 mM Tris-HCl, pH 8.0. The pellet is then re-suspended and centrifuged two to three more times at 48,000×g for 20 minutes in the presence of 50 mM Tris-HCl, pH 8.0. All centrifugation steps are carried out at 4° C. After resuspension in 5 volumes of 50 mM Tris-HCl, pH 8.0 the membrane suspension is frozen rapidly at −80° C.
On the day of assay the membranes are thawed and washed four times by resuspension in 50 mM Tris-HCl, pH 8.0 and centrifugation at 48,000×g for 20 minutes and finally re-suspended in 50 mM Tris-HCl, pH 7.4. The amount of protein in the final membrane preparation (500-700 μg/ml) is determined according to the method of Lowry (Lowry O. H. et al. 1951. J. Biol. Chem. 193, 256-275).
Alternatively, assays are performed with [^3H]-MMPEP (2-(3-methoxyphenylethynyl)-6-methylpyridine hydrochloride) as radioligand. The incubations are continued at room temperature for 60 minutes (equilibrium is achieved under the conditions used). […] Incubations are terminated using a Millipore filter system. The samples are rinsed twice with 4 ml of ice-cold assay buffer over glass fibre filters (Schleicher & Schuell, Germany) under a constant vacuum. Following separation and rinse, the filters are placed into scintillation liquid (5 ml Ultima Gold, Perkin Elmer, Germany) and radioactivity retained on the filters is determined with a conventional liquid scintillation counter (Canberra Packard, Germany).

T1 sequence (P31424 21-1203): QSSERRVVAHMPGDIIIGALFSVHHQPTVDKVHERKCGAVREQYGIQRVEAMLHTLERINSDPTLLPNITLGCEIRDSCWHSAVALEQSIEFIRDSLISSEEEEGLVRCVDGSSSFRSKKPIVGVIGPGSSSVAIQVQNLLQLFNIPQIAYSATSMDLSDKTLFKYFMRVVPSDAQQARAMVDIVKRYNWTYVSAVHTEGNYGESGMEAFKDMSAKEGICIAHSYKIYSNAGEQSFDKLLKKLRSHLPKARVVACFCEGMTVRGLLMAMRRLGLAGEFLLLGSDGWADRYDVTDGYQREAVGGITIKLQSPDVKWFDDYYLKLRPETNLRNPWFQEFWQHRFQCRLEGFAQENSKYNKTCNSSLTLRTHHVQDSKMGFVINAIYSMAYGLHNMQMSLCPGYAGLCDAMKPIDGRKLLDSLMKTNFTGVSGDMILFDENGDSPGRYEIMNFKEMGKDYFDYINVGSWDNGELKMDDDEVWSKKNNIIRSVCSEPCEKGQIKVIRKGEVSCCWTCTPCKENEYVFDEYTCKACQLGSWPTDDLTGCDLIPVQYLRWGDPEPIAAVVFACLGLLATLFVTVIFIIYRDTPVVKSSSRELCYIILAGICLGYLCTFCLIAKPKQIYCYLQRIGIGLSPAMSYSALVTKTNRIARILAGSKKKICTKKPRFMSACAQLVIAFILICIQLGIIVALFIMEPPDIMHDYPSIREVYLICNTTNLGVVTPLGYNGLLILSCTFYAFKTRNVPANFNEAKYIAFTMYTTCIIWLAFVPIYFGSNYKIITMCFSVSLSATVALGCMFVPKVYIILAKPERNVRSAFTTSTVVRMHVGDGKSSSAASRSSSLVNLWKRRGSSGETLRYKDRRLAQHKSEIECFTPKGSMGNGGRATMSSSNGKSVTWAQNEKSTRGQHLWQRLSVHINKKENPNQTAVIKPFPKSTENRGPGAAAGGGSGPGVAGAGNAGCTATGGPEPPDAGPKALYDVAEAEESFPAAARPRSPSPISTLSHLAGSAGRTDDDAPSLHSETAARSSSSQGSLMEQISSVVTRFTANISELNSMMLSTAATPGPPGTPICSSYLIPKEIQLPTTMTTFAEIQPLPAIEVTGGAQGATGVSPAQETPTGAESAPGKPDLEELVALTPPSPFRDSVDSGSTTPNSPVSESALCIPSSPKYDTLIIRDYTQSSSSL

| IC50 [nM] | SMILES |
| --- | --- |
| 91 | CC1CN(C(=O)c2cc3ncc(Br)cn3n2)C(C)c2ccccc21 (stereo not drawn) [drawing 458, (6-Bromo-pyrazolo[1,5-a]pyrimidin-2-yl)-(1,4-dimethyl-3,4-dihydro-1H-isoquinolin-2-yl)-methanone] |

molecular target: metabotropic glutamate receptor (mGluR5) (Homo sapiens, UniProt P41594); assay: Cytosolic calcium studies with stably transfected cells (FLIPR); assay type: cell-based; design: expressed in transfected cells; host or cells: CHO-K1 cells, IPTG-inducible expression; conditions: CHO-K1 cells expressing human mGluR5; agonist L-quisqualic acid; read-out: mGluR5_FLIPR_h_CHO_NAM IC50
Procedure: Cytosolic Calcium Studies with Stably Transfected Cells:
Chinese hamster ovary cells (CHO-K1 cells), stably transfected for inducible expression of a human metabotropic glutamate receptor mGluR5, are seeded into black clear bottom 96 well plates at a density of 35.000 cells per well. The standard growth medium used (Dulbecco's modified Eagle Medium, DMEM plus L-proline) contains the appropriate inducer isopropyl-β-D-thiogalactopyranosid (IPTG) to achieve optimal receptor expression. One day after seeding the growth medium is exchanged for reconstituted Ca-Kit (Molecular Devices, USA) and incubated for one hour. Ca-Kit is reconstituted in an assay buffer containing 20 mM HEPES pH 7.4, glutamic-pyruvate transaminase, pyridoxal phosphate and sodium pyruvate in Hank's balanced salt solution (HBBS). Agonistic compounds to the receptor elicit increases in cytosolic calcium which can be measured as increases in fluorescence signals by use of a fluorescence imaging plate reader (Molecular Devices).
(§1) The fluorescence signal increase after addition of agonist reflects the increase of cytosolic calcium. Inconsistencies in the amount of cells per well are normalised by using the spatial uniformity correction of the FLIPR software. The mean of replicated temporal data (n=3-5) is calculated and used for graphical representation. For the evaluation of the pharmacology, the calcium changes in response to different concentrations of agonist or antagonist are determined using a maximum minus minimum (MaxMin) calculation.
(§2) All responses (RFU-values) are determined as percentage of control (=maximum response). EC50 and IC50 are calculated according the logistic equation using GraFit 5.0 (Erithacus Software, GB) or Prism 4.0 (GraphPad Software, USA).

Sequence of metabotropic glutamate receptor (mGluR5) (P41594 21-1212): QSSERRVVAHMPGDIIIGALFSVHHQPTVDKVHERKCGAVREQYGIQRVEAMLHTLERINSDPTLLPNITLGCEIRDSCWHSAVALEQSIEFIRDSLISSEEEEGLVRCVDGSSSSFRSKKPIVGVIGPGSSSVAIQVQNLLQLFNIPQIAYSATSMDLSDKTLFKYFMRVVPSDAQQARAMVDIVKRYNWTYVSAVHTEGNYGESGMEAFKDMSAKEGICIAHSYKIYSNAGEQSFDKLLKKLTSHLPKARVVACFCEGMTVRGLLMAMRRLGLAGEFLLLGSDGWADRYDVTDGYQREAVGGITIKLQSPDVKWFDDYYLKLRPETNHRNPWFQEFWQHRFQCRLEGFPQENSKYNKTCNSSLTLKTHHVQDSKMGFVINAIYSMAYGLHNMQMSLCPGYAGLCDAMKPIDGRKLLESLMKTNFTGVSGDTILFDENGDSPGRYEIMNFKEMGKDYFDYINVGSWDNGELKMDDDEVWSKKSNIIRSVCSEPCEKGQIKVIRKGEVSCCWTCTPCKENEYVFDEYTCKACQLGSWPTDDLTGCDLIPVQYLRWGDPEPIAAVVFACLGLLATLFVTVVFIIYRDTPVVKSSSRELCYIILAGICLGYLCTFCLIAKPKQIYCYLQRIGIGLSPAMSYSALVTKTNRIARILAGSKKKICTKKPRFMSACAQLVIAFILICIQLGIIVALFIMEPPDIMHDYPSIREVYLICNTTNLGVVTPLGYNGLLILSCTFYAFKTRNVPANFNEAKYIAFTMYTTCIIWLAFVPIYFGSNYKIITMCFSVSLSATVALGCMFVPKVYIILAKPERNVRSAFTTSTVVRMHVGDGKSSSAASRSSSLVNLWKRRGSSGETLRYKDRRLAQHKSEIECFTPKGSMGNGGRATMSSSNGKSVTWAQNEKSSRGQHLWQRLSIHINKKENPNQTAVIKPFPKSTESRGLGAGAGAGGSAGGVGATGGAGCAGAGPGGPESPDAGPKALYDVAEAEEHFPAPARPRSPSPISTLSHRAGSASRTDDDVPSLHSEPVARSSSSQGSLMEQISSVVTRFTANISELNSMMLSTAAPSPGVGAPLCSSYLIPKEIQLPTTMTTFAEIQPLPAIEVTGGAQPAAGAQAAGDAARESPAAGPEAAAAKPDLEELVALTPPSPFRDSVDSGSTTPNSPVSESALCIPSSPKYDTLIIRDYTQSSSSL

| IC50 [nM] | SMILES |
| --- | --- |
| 101 | CC1CN(C(=O)c2cc3ncc(Cl)cn3n2)C(C)c2ccccc21 (stereo not drawn) [drawing 437, (6-Chloro-pyrazolo[1,5-a]pyrimidin-2-yl)-(1,4-dimethyl-3,4-dihydro-1H-isoquinolin-2-yl)-methanone] |
| 159 | COc1ccc2c(c1)CCN(C(=O)c1cc3ncc(Br)cn3n1)C2C (stereo not drawn) [drawing 439, (6-Bromo-pyrazolo[1,5-a]pyrimidin-2-yl)-(6-methoxy-1-methyl-3,4-dihydro-1H-isoquinolin-2-yl)-methanone] |
| 178 | CC1c2cccc(Br)c2CCN1C(=O)c1cc2ncc(Cl)cn2n1 (stereo not drawn) [drawing 441, (5-Bromo-1-methyl-3,4-dihydro-1H-isoquinolin-2-yl)-(6-chloro-pyrazolo[1,5-a]pyrimidin-2-yl)-methanone] |
| 66.3 | CC1c2ccc(F)cc2CCN1C(=O)c1cc2ncc(Cl)cn2n1 (stereo not drawn) [drawing 436, (6-Chloro-pyrazolo[1,5-a]pyrimidin-2-yl)-(6-fluoro-1-methyl-3,4-dihydro-1H-isoquinolin-2-yl)-methanone] |
| 43.8 | CC1c2cc(F)ccc2CCN1C(=O)c1cc2ncc(Br)cn2n1 (stereo not drawn) [drawing 434, (6-Bromo-pyrazolo[1,5-a]pyrimidin-2-yl)-(7-fluoro-1-methyl-3,4-dihydro-1H-isoquinolin-2-yl)-methanone] |

Continued, compound first:

| SMILES | IC50 [nM] |
| --- | --- |
| COc1ccc2c(c1)CCN(C(=O)c1cc3ncc(Cl)cn3n1)C2C (stereo not drawn) [drawing 440, (6-Chloro-pyrazolo[1,5-a]pyrimidin-2-yl)-(6-methoxy-1-methyl-3,4-dihydro-1H-isoquinolin-2-yl)-methanone] | 155 |
| O=C(c1cc2ncc(Cl)cn2n1)N1CCc2ncc(Br)cc2C1 [drawing 442, (3-Bromo-7,8-dihydro-5H-[1,6]naphthyridin-6-yl)-(6-chloro-pyrazolo[1,5-a]pyrrimidin-2-yl)-methanone] | 167 |
| CC1CN(C(=O)c2cc3ncc(Br)cn3n2)C(C)c2ccccc21 (stereo not drawn) [drawing 438, (6-Bromo-pyrazolo[1,5-a]pyrimidin-2-yl)-(1,4-dimethyl-3,4-dihydro-1H-isoquinolin-2-yl)-methanone] | 161 |
| CC1c2cccc(F)c2CCN1C(=O)c1cc2ncc(Br)cn2n1 (stereo not drawn) [drawing 435, (6-Bromo-pyrazolo[1,5-a]pyrimidin-2-yl)-(5-fluoro-1-methyl-3,4-dihydro-1H-isoquinolin-2-yl)-methanone] | 56.5 |
| COc1cc2c(cc1O)CCN(C(=O)c1cc3ncc(Br)cn3n1)C2C (stereo not drawn) [Example 1, (6-Bromo-pyrazolo[1,5-a]pyrimidin-2-yl)-(6-hydroxy-7-methoxy-1-methyl-3,4-dihydro-1H-isoquinolin-2-yl)-methanone] | 267 |

molecular target: T2, mGluR5 receptors (Rattus norvegicus, UniProt P31424); assay: Cytosolic calcium studies with astrocytes (astrocyte culture test, FLIPR); assay type: cell-based; conditions: rat primary astrocytes; L-quisqualate (100 nM); read-out: mGluR5_FLIPRr_rpA IC50
T2 construct: endogenous in cells; host or cells: primary astrocytes from neocortex of Sprague-Dawley rat pups
Procedure: Primary astrocyte cultures are prepared from cortices of newborn rats as described by Booher and Sensenbrenner (1972, Neurobiology 2(3):97-105). Briefly, Sprague-Dawley rat pups (2-4 d old) are decapitated and neocortices are dissected, disintegrated with a nylon filter (pore size 80 μm) and carefully triturated. The cell suspension is plated on poly-D-lysine pre-coated flasks (Costar, Netherlands) and cultivated in Dulbecco's Modified Eagle's Medium (DMEM, Invitrogen, Germany) supplemented with 10% foetal calf serum (FCS, Sigma, Germany), 4 mM glutamine and 50 μg/ml gentamycin (both Biochrom, Germany) at 37° C. in a humidified atmosphere of 5% CO2/95% air for 7 d with exchanging the medium at day 2 and 6.
After 7 days in vitro (DIV), cells are shaken overnight at 250 rpm to remove oligodendrocytes and microglia. The next day, astrocytes are rinsed twice with CMF-PBS (calcium- and magnesium-free phosphate buffered saline, Biochrom, Germany), trypsinized and subplated on poly-D-lysine pre-coated 96-well plates (Greiner, Germany) at a density of 40,000 cells/well. 24 h after establishing the secondary culture the astrocytes are rinsed with PBS^++ (phosphate buffered saline, Biochrom, Germany), and fed with astrocyte-defined medium (ADM) consisting of DMEM containing 1×G^5-supplement (Invitrogen, Germany), 0.5 μg/ml heparan sulfate, and 1.5 μg/ml fibronectin (both Sigma, Germany) (Miller et al., (1993) Brain Res. 618(1):175-8). 3 d later the medium is exchanged and the cells incubated for another 2-3 d, so that at the time of experiments astrocytes are 14-15 DIV.
The increase of cytosolic calcium after stimulation with the mGluR5 agonist L-quisqualate is measured using a fluorometric imaging plate reader (FLIPR) and the Ca-Kit (both Molecular Devices). Prior to addition of agonist or antagonist the medium is aspirated and cells are loaded for 2 h at RT with 150 μl of loading buffer consisting of Ca-sensitive dye reconstituted in sodium chloride (123 mM), potassium chloride (5.4 mM), magnesium chloride (0.8 mM), calcium chloride (1.8 mM), D-glucose (15 mM), and HEPES (20 mM), pH 7.3. Subsequently, plates are transferred to FLIPR to detect calcium increase with the addition of L-quisqualate (100 nM) measured as relative fluorescence units (RFU). If antagonists are tested, these compounds are pre-incubated for 10 minutes at RT before addition of the respective agonist.
as §1, §2

T2 sequence (P31424 21-1203): as the sequence (P31424 21-1203) above

| IC50 [nM] | SMILES |
| --- | --- |
| 64 | CC1CN(C(=O)c2cc3ncc(Cl)cn3n2)C(C)c2ccccc21 (stereo not drawn) [drawing 447, (6-Chloro-pyrazolo[1,5-a]pyrimidin-2-yl)-(1,4-dimethyl-3,4-dihydro-1H-isoquinolin-2-yl)-methanone] |
| 62 | COc1ccc2c(c1)CCN(C(=O)c1cc3ncc(Br)cn3n1)C2C (stereo not drawn) [drawing 449, (6-Bromo-pyrazolo[1,5-a]pyrimidin-2-yl)-(6-methoxy-1-methyl-3,4-dihydro-1H-isoquinolin-2-yl)-methanone] |
| 43 | COc1cc2c(cc1O)CCN(C(=O)c1cc3ncc(Br)cn3n1)C2C (stereo not drawn) [drawing 443, 2-[(6-bromopyrazolo[1,5-a]pyrimidin-2-yl)carbonyl]-7-methoxy-1-methyl-1,2,3,4-tetrahydro-6-isoquinolinol] |
| 65 | CC1c2cccc(Br)c2CCN1C(=O)c1cc2ncc(Cl)cn2n1 (stereo not drawn) [drawing 451, (5-Bromo-1-methyl-3,4-dihydro-1H-isoquinolin-2-yl)-(6-chloro-pyrazolo[1,5-a]pyrimidin-2-yl)-methanone] |
| 17 | CC1c2cccc(F)c2CCN1C(=O)c1cc2ncc(Br)cn2n1 (stereo not drawn) [drawing 445, (6-Bromo-pyrazolo[1,5-a]pyrimidin-2-yl)-(5-fluoro-1-methyl-3,4-dihydro-1H-isoquinolin-2-yl)-methanone] |

More lines, now with the values behind:

| SMILES | IC50 [nM] |
| --- | --- |
| O=C(c1cc2ncc(Cl)cn2n1)N1CCc2ncc(Br)cc2C1 [drawing 452, (3-Bromo-7,8-dihydro-5H-[1,6]naphthyridin-6-yl)-(6-chloro-pyrazolo[1,5-a]pyrimiddin-2-yl)-methanone] | 48 |
| CC1c2cc(F)ccc2CCN1C(=O)c1cc2ncc(Br)cn2n1 (stereo not drawn) [drawing 444, (6-Bromo-pyrazolo[1,5-a]pyrimidin-2-yl)-(7-fluoro-1-methyl-3,4-dihydro-1H-isoquinolin-2-yl)-methanone] | 46 |
| COc1ccc2c(c1)CCN(C(=O)c1cc3ncc(Cl)cn3n1)C2C (stereo not drawn) [drawing 450, (6-Chloro-pyrazolo[1,5-a]pyrimidin-2-yl)-(6-methoxy-1-methyl-3,4-dihydro-1H-isoquinolin-2-yl)-methanone] | 69 |
| CC1c2ccc(F)cc2CCN1C(=O)c1cc2ncc(Cl)cn2n1 (stereo not drawn) [drawing 446, (6-Chloro-pyrazolo[1,5-a]pyrimidin-2-yl)-(6-fluoro-1-methyl-3,4-dihydro-1H-isoquinolin-2-yl)-methanone] | 47 |
| CC1CN(C(=O)c2cc3ncc(Br)cn3n2)C(C)c2ccccc21 (stereo not drawn) [drawing 448, (6-Bromo-pyrazolo[1,5-a]pyrimidin-2-yl)-(1,4-dimethyl-3,4-dihydro-1H-isoquinolin-2-yl)-methanone] | 83 |
